Literature values in patent US10561630B2, “Hydroxycitric acid compounds and capsule liquid delivery” (GLYKON TECHNOLOGIES GROUP, LLC, priority 2016, dated 2020).

Tests used:
[1] = 2-week period
[2] = single large oral dose or two divided oral doses; min. 2.63 mmoles/kg once per day or 0.33 mmoles/kg twice per day; high-sugar diet

O=C(O)CC(O)(C(=O)O)C(O)C(=O)O (single isomer, unassigned; (-)) [HCA, (−)-hydroxycitric acid]
food intake decreased ([1]; 900 mg HCA, dissolved in 100 ml tomato juice): 15-30% | weight loss [1]: no significant weight loss | reduction in food consumption [2]: ≥ 10%
